Data on 37 compounds can be found in patent US20240299385A1 (ReWind Therapeutics NV, priority 2021, published 2024).

The target of this test is T1, human GPR17 receptor (Homo sapiens, UniProt Q13304).
T1 construct: host or cells: HEK-293
Briefly: Calcium mobilization functional assay (Fluo-8, FLIPR TETRA) in HEK-293 hGPR17 (Gα-q assay). The class given is cell-based. Particulars: antagonism of MDL29,951 (~EC80) induced Ca2+ signal; cell line (HEK-293 hGPR17 or HEK-293 Suchi5 hGPR17) not given. Put shortly:
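Fluo-8-loaded HEK-293 hGPR17 cells (60 min dye loading, room temperature) were preincubated with compound for twenty minutes, then challenged with agonist MDL29,951 at ~EC80, 500 nM. Intracellular calcium release via Gα-q was recorded as FLIPR fluorescence for a further 2 minutes; compounds tested in duplicate.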
On the technique in general: A change in cytosolic calcium serves as a functional read-out for many receptors and channels.

T1 sequence (Q13304 whole entry): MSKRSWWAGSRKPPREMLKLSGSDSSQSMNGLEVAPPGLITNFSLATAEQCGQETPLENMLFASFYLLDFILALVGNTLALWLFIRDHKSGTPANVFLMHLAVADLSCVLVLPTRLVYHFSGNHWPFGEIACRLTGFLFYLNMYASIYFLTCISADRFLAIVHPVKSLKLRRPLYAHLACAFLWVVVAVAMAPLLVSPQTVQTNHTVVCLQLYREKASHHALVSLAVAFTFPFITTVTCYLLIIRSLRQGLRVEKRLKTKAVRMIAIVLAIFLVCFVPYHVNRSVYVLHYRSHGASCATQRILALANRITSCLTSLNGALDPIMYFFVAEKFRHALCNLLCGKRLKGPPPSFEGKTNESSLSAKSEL

As to `O=S(=O)(Nc1cc(F)c(C(F)(F)F)cc1F)c1c[nH]c(-c2cccs2)c1` [Cpd 272, N-[2,5-difluoro-4-(trifluoromethyl)phenyl]-5-(2-thienyl)-1H-pyrrole-3-sulfonamide], the IC50 (as a rule, the concentration at which inhibition is half-maximal) was less than 0.5 µM.

Turning to `O=S(=O)(Nc1cc(F)c(C(F)(F)F)cc1F)c1c[nH]c(-c2ccsc2)c1` [Cpd 273, N-[2,5-difluoro-4-(trifluoromethyl)phenyl]-5-(3-thienyl)-1H-pyrrole-3-sulfonamide], the concentration for half-maximal inhibition (IC50) was less than 0.5 µM.

For `Cc1ccc(-c2cc(S(=O)(=O)Nc3cc(F)c(C(F)(F)F)cc3F)c[nH]2)s1` [Cpd 274, N-[2,5-difluoro-4-(trifluoromethyl)phenyl]-5-(5-methyl-2-thienyl)-1H-pyrrole-3-sulfonamide], the half-maximal inhibitory concentration (IC50) lay within 0.5 to 5 µM.

Turning to `O=S(=O)(Nc1cc(F)c(C(F)(F)F)cc1F)c1c[nH]c(-c2ccco2)c1` [Cpd 275, N-[2,5-difluoro-4-(trifluoromethyl)phenyl]-5-(2-furyl)-1H-pyrrole-3-sulfonamide], the IC50 is less than 0.5 µM.

With `O=S(=O)(Nc1cc(F)c(C(F)(F)F)cc1F)c1c[nH]c(-c2ccoc2)c1` [Cpd 276, N-(2,5-difluoro-4-(trifluoromethyl)phenyl)-5-(furan-3-yl)-1H-pyrrole-3-sulfonamide], the IC50 was less than 0.5 µM.

In the case of `Cn1cncc1-c1cc(S(=O)(=O)Nc2cc(F)c(C(F)(F)F)cc2F)c[nH]1` [Cpd 277, N-[2,5-difluoro-4-(trifluoromethyl)phenyl]-5-(3-methylimidazol-4-yl)-1H-pyrrole-3-sulfonamide], the IC50 lay in the range of 0.5 to 5 µM.

For `O=S(=O)(Nc1cc(F)c(C(F)(F)F)cc1F)c1c[nH]c(-c2ccsn2)c1` [Cpd 278, N-[2,5-difluoro-4-(trifluoromethyl)phenyl]-5-isothiazol-3-yl-1H-pyrrole-3-sulfonamide], the IC50 is less than 0.5 µM.

In the case of `Cc1cccc(-c2cc(S(=O)(=O)Nc3cc(F)c(C(F)(F)F)cc3F)c[nH]2)n1` [Cpd 279, N-[2,5-difluoro-4-(trifluoromethyl)phenyl]-5-(6-methyl-2-pyridyl)-1H-pyrrole-3-sulfonamide], the IC50 lay within 0.5 to 5 µM.

In the case of `Cc1ccc(-c2cc(S(=O)(=O)Nc3cc(F)c(C(F)(F)F)cc3F)c[nH]2)nc1` [Cpd 280, N-[2,5-difluoro-4-(trifluoromethyl)phenyl]-5-(5-methyl-2-pyridyl)-1H-pyrrole-3-sulfonamide], the IC50 lay in the range of 0.5 to 5 µM.

With `COc1cccc(-c2cc(S(=O)(=O)Nc3cc(F)c(C(F)(F)F)cc3F)c[nH]2)n1` [Cpd 281, N-[2,5-difluoro-4-(trifluoromethyl)phenyl]-5-(6-methoxy-2-pyridyl)-1H-pyrrole-3-sulfonamide], the concentration for half-maximal inhibition (IC50) is less than 0.5 µM.

As to `O=S(=O)(Nc1cc(F)c(C(F)(F)F)cc1F)c1c[nH]c(-c2ncccc2C(F)(F)F)c1` [Cpd 282, N-[2,5-difluoro-4-(trifluoromethyl)phenyl]-5-[3-(trifluoromethyl)-2-pyridyl]-1H-pyrrole-3-sulfonamide], the IC50 fell in the range of 5 to 50 µM.

As to `COc1cccc(-c2cc(S(=O)(=O)Nc3ccc(C#N)cc3F)c[nH]2)c1C` [Cpd 283, N-(4-cyano-2-fluoro-phenyl)-5-(3-methoxy-2-methyl-phenyl)-1H-pyrrole-3-sulfonamide], the IC50 lay in the range of 5 to 50 µM.

On to `N#Cc1ccc(NS(=O)(=O)c2c[nH]c(-c3ccc(F)c(Cl)c3)c2)c(F)c1` [Cpd 284, 5-(3-chloro-4-fluoro-phenyl)-N-(4-cyano-2-fluoro-phenyl)-1H-pyrrole-3-sulfonamide], for which the IC50 is 0.5 to 5 µM.

`Cc1ccc(F)cc1-c1cc(S(=O)(=O)Nc2ccc(C#N)cc2F)c[nH]1` [Cpd 285, N-(4-cyano-2-fluoro-phenyl)-5-(5-fluoro-2-methyl-phenyl)-1H-pyrrole-3-sulfonamide]: the IC50 is less than 0.5 µM.

On to `Cc1cc(NS(=O)(=O)c2c[nH]c(-c3ccccn3)c2)c(F)cc1C#N` [Cpd 286, N-(4-cyano-2-fluoro-5-methyl-phenyl)-5-(2-pyridyl)-1H-pyrrole-3-sulfonamide], for which the IC50 is 0.5 to 5 µM.

As for `N#Cc1ccc(NS(=O)(=O)c2c[nH]c(-c3ccc(Cl)c(F)c3)c2)c(F)c1` [Cpd 287, 5-(4-chloro-3-fluoro-phenyl)-N-(4-cyano-2-fluoro-phenyl)-1H-pyrrole-3-sulfonamide], the IC50 is 0.5 to 5 µM.

Regarding `Cc1cc(F)cc(-c2cc(S(=O)(=O)Nc3ccc(C#N)cc3F)c[nH]2)c1` [Cpd 288, N-(4-cyano-2-fluoro-phenyl)-5-(3-fluoro-5-methyl-phenyl)-1H-pyrrole-3-sulfonamide], the IC50 was 0.5 to 5 µM.

Turning to `N#Cc1ccc(NS(=O)(=O)c2c[nH]c(-c3c(F)cccc3Cl)c2)c(F)c1` [Cpd 289, 5-(2-chloro-6-fluoro-phenyl)-N-(4-cyano-2-fluoro-phenyl)-1H-pyrrole-3-sulfonamide], the half-inhibitory concentration (IC50) is less than 0.5 µM.

`COc1c(F)cccc1-c1cc(S(=O)(=O)Nc2ccc(C#N)cc2F)c[nH]1` [Cpd 290, N-(4-cyano-2-fluoro-phenyl)-5-(3-fluoro-2-methoxy-phenyl)-1H-pyrrole-3-sulfonamide]: the IC50 was less than 0.5 µM.

As to `N#Cc1ccc(NS(=O)(=O)c2c[nH]c(-c3ccc(F)c(F)c3)c2)c(F)c1` [Cpd 291, N-(4-cyano-2-fluoro-phenyl)-5-(3,4-difluorophenyl)-1H-pyrrole-3-sulfonamide], the IC50 fell in the range of 0.5 to 5 µM.

On to `N#Cc1ccc(NS(=O)(=O)c2c[nH]c(-c3cccc(Cl)c3Cl)c2)c(F)c1` [Cpd 292, N-(4-cyano-2-fluoro-phenyl)-5-(2,3-dichlorophenyl)-1H-pyrrole-3-sulfonamide], for which the IC50 is 0.5 to 5 µM.

Regarding `Cc1ccc(-c2cc(S(=O)(=O)Nc3cc(F)c(C(F)(F)F)cc3F)c[nH]2)c(F)c1` [Cpd 293, N-[2,5-difluoro-4-(trifluoromethyl)phenyl]-5-(2-fluoro-4-methyl-phenyl)-1H-pyrrole-3-sulfonamide], the IC50 lay in the range of 5 to 50 µM.

Turning to `COc1ccc(-c2cc(S(=O)(=O)Nc3cc(F)c(C(F)(F)F)cc3F)c[nH]2)cc1` [Cpd 294, N-[2,5-difluoro-4-(trifluoromethyl)phenyl]-5-(4-methoxyphenyl)-1H-pyrrole-3-sulfonamide], the half-maximal inhibitory concentration (IC50) is 5 to 50 µM.

For the compound `Cc1ccc(-c2cc(S(=O)(=O)Nc3cc(F)c(C(F)(F)F)cc3F)c[nH]2)cc1` [Cpd 295, N-[2,5-difluoro-4-(trifluoromethyl)phenyl]-5-(p-tolyl)-1H-pyrrole-3-sulfonamide], the IC50 fell in the range of 5 to 50 µM.

Regarding `Cc1ccc(Cl)cc1-c1cc(S(=O)(=O)Nc2ccc(C#N)cc2F)c[nH]1` [Cpd 296, 5-(5-chloro-2-methyl-phenyl)-N-(4-cyano-2-fluoro-phenyl)-1H-pyrrole-3-sulfonamide], the IC50 fell in the range of 0.5 to 5 µM.

Turning to `O=S(=O)(Nc1cc(F)c(C(F)(F)F)cc1F)c1c[nH]c(-c2ccc(Cl)cc2)c1` [Cpd 297, 5-(4-chlorophenyl)-N-[2,5-difluoro-4-(trifluoromethyl)phenyl]-1H-pyrrole-3-sulfonamide], the IC50 was 5 to 50 µM.

Take `COc1ccccc1-c1cc(S(=O)(=O)Nc2cc(F)c(C(F)(F)F)cc2F)c[nH]1` [Cpd 298, N-[2,5-difluoro-4-(trifluoromethyl)phenyl]-5-(2-methoxyphenyl)-1H-pyrrole-3-sulfonamide]: the IC50 was 0.5 to 5 µM.

Regarding `COc1cc(F)cc(-c2cc(S(=O)(=O)Nc3ccc(C#N)cc3F)c[nH]2)c1` [Cpd 299, N-(4-cyano-2-fluoro-phenyl)-5-(3-fluoro-5-methoxy-phenyl)-1H-pyrrole-3-sulfonamide], the IC50 was 0.5 to 5 µM.

`COc1ccc(-c2cc(S(=O)(=O)Nc3ccc(C#N)cc3F)c[nH]2)c(Cl)c1` [Cpd 300, 5-(2-chloro-4-methoxy-phenyl)-N-(4-cyano-2-fluoro-phenyl)-1H-pyrrole-3-sulfonamide]: the IC50 lay within 0.5 to 5 µM.

Regarding `O=S(=O)(Nc1cc(F)c(C(F)(F)F)cc1F)c1c[nH]c(-c2cccc(F)c2F)c1` [Cpd 301, 5-(2,3-difluorophenyl)-N-[2,5-difluoro-4-(trifluoromethyl)phenyl]-1H-pyrrole-3-sulfonamide], the IC50 is 0.5 to 5 µM.

Turning to `O=S(=O)(Nc1cc(F)c(C(F)(F)F)cc1F)c1c[nH]c(-c2cscn2)c1` [Cpd 302, N-[2,5-difluoro-4-(trifluoromethyl)phenyl]-5-thiazol-4-yl-1H-pyrrole-3-sulfonamide], the IC50 is less than 0.5 µM.

Turning to `Cc1ccnc(-c2cc(S(=O)(=O)Nc3cc(F)c(C(F)(F)F)cc3F)c[nH]2)c1` [Cpd 303, N-[2,5-difluoro-4-(trifluoromethyl)phenyl]-5-(4-methyl-2-pyridyl)-1H-pyrrole-3-sulfonamide], the half-maximal inhibitory concentration (IC50) was 0.5 to 5 µM.

For `COc1ccc(-c2cc(S(=O)(=O)Nc3cc(F)c(C(F)(F)F)cc3F)c[nH]2)nc1` [Cpd 304, N-[2,5-difluoro-4-(trifluoromethyl)phenyl]-5-(5-methoxy-2-pyridyl)-1H-pyrrole-3-sulfonamide], the IC50 was in the range of 0.5 to 5 µM.

As for `COc1ccnc(-c2cc(S(=O)(=O)Nc3cc(F)c(C(F)(F)F)cc3F)c[nH]2)c1` [Cpd 305, N-[2,5-difluoro-4-(trifluoromethyl)phenyl]-5-(4-methoxy-2-pyridyl)-1H-pyrrole-3-sulfonamide], the IC50 was in the range of 0.5 to 5 µM.

With `Cc1cccc(Cc2c[nH]cc2S(=O)(=O)Nc2ccc(C#N)cc2F)c1` [Cpd 306, N-(4-cyano-2-fluoro-phenyl)-4-(m-tolylmethyl)-1H-pyrrole-3-sulfonamide], the IC50 is 0.5 to 5 µM.

In the case of `N#Cc1ccc(NS(=O)(=O)c2c[nH]cc2Cc2cccc(C(F)(F)F)c2)c(F)c1` [Cpd 307, N-(4-cyano-2-fluoro-phenyl)-4-[[3-(trifluoromethyl)phenyl]methyl]-1H-pyrrole-3-sulfonamide], the IC50 was 0.5 to 5 µM.

Turning to `N#Cc1ccc(NS(=O)(=O)c2c[nH]cc2Cc2cccc(OC(F)(F)F)c2)c(F)c1` [Cpd 308, N-(4-cyano-2-fluoro-phenyl)-4-[[3-(trifluoromethoxy)phenyl]methyl]-1H-pyrrole-3-sulfonamide], the IC50 lay within 0.5 to 5 µM.
